Assay results taken from patent US10196364B2, “Pyrimidine carboxamides as sodium channel blockers” (Purdue Pharma L.P., priority 2013, dated 2019).

Experiments:
Assay type in all cases: cell-based
human Nav1.7 [1] = target: T1, human Nav1.7 (Homo sapiens, UniProt Q15858); test: FLIPR sodium dye assay (CoroNa Green AM Na+ dye, primary fluorescence assay) in recombinant Nav1.7/HEK293 cells; details: Table 6; CoroNa Green AM Na+ dye primary fluorescence assay; read-out: Nav1.7 Activity (μM) FLIPR assay IC50
T1 sequence (Q15858 1-1977 isoform Q15858-3): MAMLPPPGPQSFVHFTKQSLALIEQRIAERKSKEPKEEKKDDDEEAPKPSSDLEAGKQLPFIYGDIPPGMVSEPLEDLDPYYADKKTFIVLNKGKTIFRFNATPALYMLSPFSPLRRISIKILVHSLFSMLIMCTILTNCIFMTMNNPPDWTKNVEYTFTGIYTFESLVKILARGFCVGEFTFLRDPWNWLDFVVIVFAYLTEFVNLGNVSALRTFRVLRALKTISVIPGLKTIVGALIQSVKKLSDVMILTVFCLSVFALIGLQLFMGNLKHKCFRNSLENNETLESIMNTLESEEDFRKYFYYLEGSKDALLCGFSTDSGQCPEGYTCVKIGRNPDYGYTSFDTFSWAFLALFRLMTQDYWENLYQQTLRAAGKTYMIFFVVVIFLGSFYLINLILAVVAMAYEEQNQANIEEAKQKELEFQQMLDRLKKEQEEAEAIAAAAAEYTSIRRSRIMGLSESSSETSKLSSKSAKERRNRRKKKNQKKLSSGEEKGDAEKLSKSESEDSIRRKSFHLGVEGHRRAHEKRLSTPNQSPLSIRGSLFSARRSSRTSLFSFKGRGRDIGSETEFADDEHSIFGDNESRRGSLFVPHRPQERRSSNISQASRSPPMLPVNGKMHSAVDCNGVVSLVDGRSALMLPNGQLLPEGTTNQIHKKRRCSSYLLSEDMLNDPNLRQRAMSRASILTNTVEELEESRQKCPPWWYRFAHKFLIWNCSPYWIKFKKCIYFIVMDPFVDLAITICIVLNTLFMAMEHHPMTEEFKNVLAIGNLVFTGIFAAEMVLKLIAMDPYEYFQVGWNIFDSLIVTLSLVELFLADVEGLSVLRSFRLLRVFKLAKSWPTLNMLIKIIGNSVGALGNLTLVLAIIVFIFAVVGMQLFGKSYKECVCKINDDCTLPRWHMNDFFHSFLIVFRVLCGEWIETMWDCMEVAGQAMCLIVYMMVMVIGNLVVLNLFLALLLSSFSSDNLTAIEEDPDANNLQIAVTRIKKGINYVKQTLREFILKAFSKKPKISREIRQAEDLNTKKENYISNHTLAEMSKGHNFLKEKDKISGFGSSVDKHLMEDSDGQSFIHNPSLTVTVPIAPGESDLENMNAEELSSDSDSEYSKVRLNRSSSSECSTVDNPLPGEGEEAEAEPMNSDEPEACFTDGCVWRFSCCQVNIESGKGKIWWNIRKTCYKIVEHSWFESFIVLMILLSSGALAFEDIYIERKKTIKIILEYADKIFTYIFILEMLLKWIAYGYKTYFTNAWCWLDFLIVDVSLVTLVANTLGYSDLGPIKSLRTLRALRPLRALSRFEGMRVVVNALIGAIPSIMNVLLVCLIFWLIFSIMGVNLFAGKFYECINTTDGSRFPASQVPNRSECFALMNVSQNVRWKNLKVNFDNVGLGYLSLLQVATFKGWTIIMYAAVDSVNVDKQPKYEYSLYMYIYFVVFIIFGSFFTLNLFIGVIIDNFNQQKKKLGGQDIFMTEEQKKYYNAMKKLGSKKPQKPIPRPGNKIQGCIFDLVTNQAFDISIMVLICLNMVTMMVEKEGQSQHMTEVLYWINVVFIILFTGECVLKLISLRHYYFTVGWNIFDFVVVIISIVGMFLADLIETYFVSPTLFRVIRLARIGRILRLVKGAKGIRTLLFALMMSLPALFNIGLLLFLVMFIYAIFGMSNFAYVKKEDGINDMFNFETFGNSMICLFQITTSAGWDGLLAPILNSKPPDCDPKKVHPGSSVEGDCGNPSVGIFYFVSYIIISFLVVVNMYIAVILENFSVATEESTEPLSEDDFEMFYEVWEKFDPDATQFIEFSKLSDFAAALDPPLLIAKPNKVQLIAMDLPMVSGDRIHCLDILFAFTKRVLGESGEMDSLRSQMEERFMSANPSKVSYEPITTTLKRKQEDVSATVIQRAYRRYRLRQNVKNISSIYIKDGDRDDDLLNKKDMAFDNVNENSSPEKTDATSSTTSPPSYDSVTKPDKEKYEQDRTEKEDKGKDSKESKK

hNav1.7 = hNav1.7 (Homo sapiens, UniProt Q15858); test: Electrophysiology (EP) whole-cell patch clamp assay in hNav1.7 expressing HEK-293 cells; details: Table 6; for Ki: affinity for inactivated channels, read-out: Nav1.7 Activity (μM) EP assay Ki; for Kd: resting block dissociation constant, read-out: Nav1.7 Activity (μM) EP assay Kr
Sequence of hNav1.7 (Q15858 1-1977 isoform Q15858-3): as above
Protocol: The hNav1.7 expressing HEK-293 cells were plated on 35 mm culture dishes pre-coated with poly-D-lysine in standard DMEM culture media (Mediatech, Inc., Herndon, Va.) and incubated in a 5% CO2 incubator at 37° C. Cultured cells were used approximately 12-48 h after plating.
On the day of experimentation, the 35 mm dish was placed on the stage of an inverted microscope equipped with a perfusion system that continuously perfuses the culture dish with fresh recording media. A gravity driven superfusion system was used to apply test solutions directly to the cell under evaluation. This system consists of an array of glass pipette glass connected to a motorized horizontal translator. The outlet of the shooter was positioned approximately 100 μm from the cell of interest.
Whole cell currents were recorded using the whole-cell patch clamp configuration using an Axopatch 200B amplifier (Axon Instruments, Foster City Calif.), 1322A A/D converter (Axon Instruments) and pClamp software (v. 8; Axon Instruments) and stored on a personal computer. Gigaseals were formed and the whole-cell configuration was established in voltage clamp mode, and membrane currents generated by hNav1.7 were recorded in gap-free mode. Borosilicate glass pipettes have resistance values between 1.5 and 2.0 MΩ when filled with pipette solution and series resistance (<5 MΩ) was compensated 75-80%. Signals were sampled at 50 kHz and low pass filtered at 3 kHz.
After establishing the whole-cell configuration in voltage clamp mode, two voltage protocols were run to establish: 1) the holding potential; and 2) the test potential for each cell.
To determine a membrane potential at which the majority of channels are in the resting state, a standard steady-state inactivation (SSIN) protocol was run using 100 ms prepulses×10 mV depolarizing steps. The holding potential for testing resting block (Vh1) was 20 mV more hyperpolarized than the first potential where inactivation is observed with the inactivation protocol.
From this holding potential a standard I-V protocol was run to determine the potential at which the maximal current (Imax) was elicited. This potential was the test potential (Vt).
The compound testing protocol was a series of 10 ms depolarizations from the Vh1 (determined from the SSIN) to the Vt (determined from the I-V protocol) repeated every 10-15 seconds. […] Washout of the compound was attempted by superfusing with control solution once steady-state block was observed. The fractional response was calculated as follows: FR=I(after drug)/I(control), where I is the peak current amplitude and was used for estimating resting block dissociation constant, Kr: Kr=[drug]*{FR/(1−FR)}, where [drug] is the concentration of a drug.
To assess the block of inactivated channels the holding potential was depolarized such that 20-50% of the current amplitude was reduced when pulsed to the same Vt as above. The magnitude of this depolarization depends upon the initial current amplitude and the rate of current loss due to slow inactivation. This was the second holding potential (Vh2). The current reduction was recorded to determine the fraction of available channels at this potential (h). h=I@Vh2/Imax.
At this membrane voltage a proportion of channels are in the inactivated state, and thus inhibition by a blocker includes interaction with both resting and inactivated channels.
To determine the potency of the test compound on inactivated channels, a series of currents were elicited by 10 ms voltage steps from Vh2 to Vt every 10-15 seconds. After establishing a stable baseline, the low concentration of the compound was applied. Multiple cumulative concentrations may have to be applied to identify a concentration that will block between 40-60% of the current. Washout was attempted to re-establish baseline. Fractional responses were measured with respect to a projected baseline to determine Kapp. Kapp=[drug]*{FR/(1−FR)}, where [drug] is the concentration of a drug. […]

human Nav1.7 [2] = target: T1, human Nav1.7; test: FLIPR membrane potential dye assay (alternative fluorescence assay) in Nav1.7 expressing cells; details: Table 7

Row | IC50 (human Nav1.7 [1]) [µM] | Ki (hNav1.7) [µM] | IC50 (human Nav1.7 [2]) [µM] | Kd (hNav1.7) [µM] | SMILES
1 | 1.61 | 0.29 | – | – | NC(=O)c1cc(N[C@H]2CCNC2=O)nc(-c2ccc(Cc3ccc(C(F)(F)F)cn3)cc2)n1 [Cpd No. 190, (S)-6-((2-oxopyrrolidin-3-yl)amino)-2-(4-((5-(trifluoro-methyl)pyridin-2-yl)methyl)-phenyl)pyrimidine-4-carboxamide]
2 | – | – | 0.94 | – | Cn1nccc1-c1cc(Oc2ccc(C(F)(F)F)cc2)ccc1-c1nc(N[C@H]2CCNC2=O)cc(C(N)=O)n1 [Cpd No. 219, (S)-2-(2-(1-methyl-1H-pyrazol-5-yl)-4-(4-(trifluoromethyl)-phenoxy)phenyl)-6-((2-oxopyrrolidin-3-yl)amino)-pyrimidine-4-carboxamide]
3 | – | – | 2.76 | – | NC(=O)c1cc(N[C@H]2CCNC2=O)nc(-c2ccc(Oc3ccc(C(F)F)cn3)cc2)n1 [Cpd No. 220, (S)-2-(4-((5-(difluoromethyl)-pyridin-2-yl)oxy)phenyl)-6-((2-oxopyrrolidin-3-yl)amino)-pyrimidine-4-carboxamide]
4 | – | – | > 20 | – | NC(=O)c1cc(O[C@H]2CCNC2=O)nc(-c2ccc(Oc3ccc(C(F)(F)F)cc3)cc2CN2CCCCC2)n1 [Cpd No. 231, (S)-6-((2-oxopyrrolidin-3-yl)oxy)-2-(2-(piperidin-1-ylmethyl)-4-(4-(trifluoromethyl)-phenoxy)phenyl)pyrimidine-4-carboxamide]
5 | – | – | 10 to 20 | – | NC(=O)c1cc(O[C@H]2CCNC2=O)nc(-c2ccc(Oc3ccc(C(F)(F)F)cc3)cc2CN2CCOCC2)n1 [Cpd No. 232, (S)-2-(2-(morpholinomethyl)-4-(4-(trifluoromethyl)-phenoxy)phenyl)-6-((2-oxopyrrolidin-3-yl)oxy)-pyrimidine-4-carboxamide]
6 | 0.2 | 0.027 | – | 0.83 | NC(=O)c1cc(N[C@H]2CCNC2=O)nc(-c2ccc(Oc3cc(Cl)ccc3F)cc2)n1 [compound 117, (S)-2-(4-(5-chloro-2-fluorophenoxy)phenyl)-6-((2-oxopyrrolidin-3-yl)amino)pyrimidine-4-carboxamide]
7 | 0.39 | 0.57 | – | 7.17 | NC(=O)c1cc(N[C@H]2CCNC2=O)nc(-c2ccc(Oc3ccc(Cl)cn3)cc2)n1 [compound 133, (S)-2-(4-((5-chloropyridin-2-yl)oxy)phenyl)-6-((2-oxopyrrolidin-3-yl)amino)pyrimidine-4-carboxamide]
8 | 2.42 | 0.82 | – | 22.1 | NC(=O)c1cc(N[C@H]2CCNC2=O)nc(-c2ccc(Oc3cccc(F)n3)cc2)n1 [compound 134, (S)-2-(4-((6-fluoropyridin-2-yl)oxy)phenyl)-6-((2-oxopyrrolidin-3-yl)amino) pyrimidine-4-carboxamide]

Second part, the compound before the results:

Row | SMILES | IC50 (human Nav1.7 [1]) [µM] | Ki (hNav1.7) [µM] | IC50 (human Nav1.7 [2]) [µM] | Kd (hNav1.7) [µM]
9 | NC(=O)c1cc(N[C@H]2CCNC2=O)nc(N2[C@@H]3CC[C@H]2C[C@H](Oc2ccc(C(F)(F)F)cn2)C3)n1 [Cpd No. 183, 6-(((S)-2-oxopyrrolidin-3-yl)amino)-2-((1R,3R,5S)-3-((5-(trifluoromethyl)pyridin-2-yl)oxy)-8-azabicyclo[3.2.1]octan-8-yl)pyrimidine-4-carboxamide] | 1.27 | 0.49 | – | –
10 | CCN(CC)Cc1cc(C(F)(F)F)ccc1Oc1ccc(-c2nc(O[C@H]3CCNC3=O)cc(C(N)=O)n2)cc1 [Cpd No. 216, (S)-2-(4-(2-((diethylamino)-methyl)-4-(trifluoromethyl)-phenoxy)phenyl)-6-((2-oxopyrrolidin-3-yl)oxy)-pyrimidine-4-carboxamide] | – | – | 1.21 | –
11 | CC(=O)c1ccc(Oc2ccc(-c3nc(N[C@H]4CCNC4=O)cc(C(N)=O)n3)cc2)nc1 [Cpd No. 217, (S)-2-(4-((5-acetylpyridin-2-yl)oxy)phenyl)-6-((2-oxo-pyrrolidin-3-yl)amino)-pyrimidine-4-carboxamide] | – | – | > 20 | –
12 | Cn1cc(-c2ccc(-c3nc(N[C@H]4CCNC4=O)cc(C(N)=O)n3)cc2)c2ccc(C(F)(F)F)cc21 [Cpd No. 218, (S)-2-(4-(1-methyl-6-(trifluoromethyl)-1H-indol-3-yl)phenyl)-6-((2-oxopyrrolidin-3-yl)amino)pyrimidine-4-carboxamide] | – | – | 4.03 | –
13 | NC(=O)c1cc(N[C@H]2CCNC2=O)nc(-c2ccc(N3Cc4cc(Cl)ccc4OCC3=O)cc2)n1 [Cpd No. 221, (S)-2-(4-(7-chloro-3-oxo-2,3-dihydrobenzo[f][1,4]oxazepin-4(5H)-yl)phenyl)-6-((2-oxopyrrolidin-3-yl)amino)-pyrimidine-4-carboxamide] | – | – | > 20 | –
14 | C[C@H](Nc1cc(C(N)=O)nc(-c2ccc(N3Cc4cc(Cl)ccc4OCC3=O)cc2)n1)C(N)=O [Cpd No. 222, (S)-6-((1-amino-1-oxopropan-2-yl)amino)-2-(4-(7-chloro-3-oxo-2,3-dihydrobenzo-[f][1,4]oxazepin-4(5H)-yl)phenyl)pyrimidine-4-carboxamide] | – | – | > 20 | –
15 | C[C@H](Nc1cc(C(N)=O)nc(-c2ccc(N3CCOc4cc(F)ccc43)cc2)n1)C(N)=O [Cpd No. 223, (S)-6-((1-amino-1-oxopropan-2-yl)amino)-2-(4-(7-fluoro-2,3-dihydro-4H-benzo[b][1,4]oxazin-4-yl)phenyl)pyrimidine-4-carboxamide] | – | – | 3.78 | –
16 | C[C@H](Nc1cc(C(N)=O)nc(N2CC[C@H](Oc3ccc(C(F)(F)F)cc3)C2)n1)C(N)=O [Cpd No. 225, 6-(((S)-1-amino-1-oxopropan-2-yl)amino)-2-((S)-3-(4-(trifluoro-methyl)phenoxy)pyrrolidin-1-yl)pyrimidine-4-carboxamide] | – | – | 10 to 20 | –
17 | C[C@H](Nc1cc(C(N)=O)nc(N2CC[C@@H](Oc3ccc(C(F)(F)F)cc3)C2)n1)C(N)=O [Cpd No. 226, 6-(((S)-1-amino-1-oxopropan-2-yl)amino)-2-((R)-3-(4-(trifluoromethyl)-phenoxy)pyrrolidin-1-yl)pyrimidine-4-carboxamide] | – | – | 3.23 | –
18 | Cn1cc(COc2ccc(-c3nc(N[C@H]4CCNC4=O)cc(C(N)=O)n3)cc2)cn1 [Cpd No. 233, (S)-2-(4-((1-methyl-1H-pyrazol-4-yl)methoxy)phenyl)-6-((2-oxopyrrolidin-3-yl)amino)-pyrimidine-4-carboxamide] | – | – | 10 to 20 | –
19 | NC(=O)c1cc(N[C@H]2CCNC2=O)nc(N2C3CCC2CC(Oc2ccc(C(F)(F)F)cn2)C3)n1 (stereo partly drawn) [compound 140, 6-(((S)-2-oxopyrrolidin-3-yl)amino)-2-(3-((5-(trifluoromethyl)pyridin-2-yl)oxy)-8-azabicyclo[3.2.1]octan-8-yl)pyrimidine-4-carboxamide] | 0.38 | 2.55 | – | 46.2
20 | NC(=O)c1cc(N[C@H]2CCNC2=O)nc(-c2ccc(Oc3ccc(C4CC4)cn3)cc2)n1 [compound 142, (S)-2-(4-((5-cyclopropylpyridin-2-yl)oxy)phenyl)-6-((2-oxopyrrolidin-3-yl)amino)pyrimidine-4-carboxamide] | 0.064 | 0.3 | – | 26.8
21 | C[C@H](Oc1cc(C(N)=O)nc(-c2ccc(Oc3ccc(C(F)(F)F)cn3)cc2)n1)C(N)=O [compound 146, (S)-6-((1-amino-1-oxopropan-2-yl)oxy)-2-(4-((5-(trifluoromethyl)pyridin-2-yl)oxy)phenyl)pyrimidine-4-carboxamide] | 0.52 | 1.25 | – | 18.3
